What was measured:
Type in all cases: cell-based
[1] = tested on: endogenous miR-223-3p in HL60 cells; assay: qRT-PCR of endogenous miR-223-3p in HL60 cells after Ara-C; settings: 50 μM Ara-C, different time points
Method: Quantitative real time PCR (qRT-PCR) measuring endogenous miR-223 If miR-223-3p is a physiologic regulator of PARP1 expression, then its expression should be repressed after DNA damage, when higher levels of PARP1 are required to repair this damage. Mir223-3p is most highly expressed in hematopoietic cells, such as the HL60 cell line. HL60 cells were treated with 50 μM cytarabine (Ara-C) for lhr, 4 hr, 8 hr, 12 hr and 24 hr. Western blot analysis was performed to examine PARP1 protein levels in these samples. For measuring levels of miR-223-3p, cells were collected at the above time points, RNA isolated using the Qiagen RNeasy kit. cDNA conversion was then performed using first-strand cDNA synthesis kit for miRNA from Origene (HP100042). qRT-PCR for miR-223 3p was performed on a 7900HT Fast Real-Time PCR system (ABI) according to Origene protocol and ACT values were calculated. […]
Quantitative Real Time PCR (qRT-PCR) Measuring Endogenous miR223-3p. […] For measuring levels of miR223-3p, cells were collected at the above time points, RNA isolated using the Qiagen RNeasy kit. cDNA conversion was then performed using first-strand cDNA synthesis kit for miRNA from Origene (HP100042). qRT-PCR for miR223 3p was performed on a 7900HT Fast Real-Time PCR system (ABI) according to Origene protocol and ΔCT values were calculated. […]

[2] = tested on: Human Mesothelioma cells (H-Meso 01A); assay: Colony formation of BAP1 mutant human mesothelioma cells treated with olaparib; settings: 3 olaparib, 10 days continuous
Method: These cells were treated with the PARP inhibitor, olaparib. Human Mesothelioma cells (H-Meso 01A) were cultured in RPMI media supplemented with 10% FBS and 1% Penicillin/Streptomycin. These cells were seeded in a 6-well plate at a density of 4000 cells/well and allowed to grow for 18 hours. Of the six wells, three wells were treated with […] (LC laboratories, Cat #0-9201) each and the other three wells were considered as controls. The cells were allowed to grow for 10 days. Olaparib stayed on the cells throughout the experiment. After 10 days of incubation, colonies were stained with 0.1% crystal violet in methanol and counted using Image J software. Olaparib killed at least 80-90% of the cells. The experiment was done three times, each in triplicates and the average from all three times was calculated (FIG. 24).

PARP1 3′ UTR mRNA = assay: Luciferase assay for stability of PARP1 3′ UTR mRNA in A549 cells; settings: normalized against Renilla luciferase
Method: A549 cells were transfected with miR-223-3p mimic using RNAiMAX as above. After 6 hours, these cells were transfected with PARP 3′UTR plasmid fused with dual luciferase reporter from GeneCopoeia using Lipofectamine 2000. 48 hours post-transfection, cells were collected and assessed for luciferase activity using Luc-Pair Dual Luciferase assay kit from GeneCopoeia. The firefly luciferase activity is normalized against Renilla luciferase, which serves as a transfection control.
Luciferase assay for assessing stability of PARP1 3′ UTR mRNA. A549 cells were transfected with miR223-3p mimic using RNAiMAX as above. After 6 hours, these cells were transfected with PARP 3′UTR plasmid fused with dual luciferase reporter from GeneCopoeia using Lipofectamine 2000. 48 hours post-transfection, cells were collected and assessed for luciferase activity using Luc-Pair Dual Luciferase assay kit from GeneCopoeia. The firefly luciferase activity is normalized against Renilla luciferase, which serves as a transfection control.

[3] = tested on: other DNA repair components as well as PARP1; assay: Western blot of DNA repair components after miR223-3p mimic; settings: MDA MB 436, HCC1937 and H2452 cells, 48 hours after transfection, vs scr control
Method: (§1) Cell Culture, miRNA transfection and Survival Assay. The BRCA1-deficient MDA-MB-436 breast cancer cells were cultured in DMEM supplemented with 10% FBS and 1% penicillin and streptomycin. BRRCA1-deficient UWB1.289 ovarian cancer cells were cultured and maintained in 50% MEBM medium with growth factors and 50% RPMI medium supplemented with 3% FBS and 1% penicillin and streptomycin. BAP1-mutant H2452 mesothelioma cells were cultured in RPMI 1640 medium supplemented with 10% fetal bovine serum and 1% penicillin and streptomycin. 25 nm of mirVana miR223-3p mimic from Ambion life technologies (Cat #4464067) was used to deplete PARP1 protein in these cell lines. Mir223-3p was encapsulated into the lipid transfection complex, RNAiMAX. 25 nm of mir223-3p was incubated in 500 µL Opti-MEM plus 6 ul of RNAiMAX for 20 mins at room temperature, and then added to the cells for a final volume of 1 ml. After 48 hours, the cells were trypsinized, counted and plated in 6 well plates at a density of 4000 cells per well, in triplicates. After 14 days of incubation, colonies were stained with 0.1% crystal violet in methanol and counted using Image J software. PARP1 repression by mir223-3p was shown by western blot. PARP1 antibody was purchased from Cell Signaling (46D11). FIG. 44 illustrates the depletion of other DNA repair components in addition to PARP1.

[4] = tested on: MDA-MB-436 BRCA mutant cells; assay: Active replication forks analysis (BrdU foci), MDA-MB-436; settings: 72 hours after miRNA transfection, BrdU 30 minutes
Method: Active Replication Forks Analysis. Active Replication forks after miR223-3p mimic transfection were measured using immunofluorescent detection of BrdU foci after DNA denaturation. Briefly, 72 hours after transfection, cells were released into fresh media containing 10 uM BrdU (BD Biosciences, Franklin Lakes, N.J.) for 30 min. After washing, cells on coverslip were fixed and the DNA denatured using hydrochloric acid for BrdU immunostaining. The coverslips were processed for immunostaining using BrdU-specific antibody (Cell Signaling, Danvers, Mass.) and then incubated with a secondary antibody conjugated with Alexa Fluor dye from Invitrogen for 1 h. Cells were analyzed as above using the laser scanning confocal microscope. At least five hundred cells were counted for each condition from at least six distinct slides per condition for statistical analysis.

PARP1 = assay: Western analysis of PARP1 after exposure to miR-223-3p mimic; settings: for PARP1 protein expression (Western): breast and ovarian cell lines harboring BRCA1 mutant (MDA-MB-436, UWB1.289); for PARP1 repression/knockdown (Western): cell line not given, 25 nM mimic in FIG. 33
Method: (§2) Colony formation assays measures the ability of a single cell to not only survive, but also to proliferate. Thus, it is an indirect measurement of cancer stem cell activity, the ability of a single cell to give rise to a host of progeny. The BRCA1-deficient MDA-MB-436 breast cancer cells were cultured in DMEM supplemented with 10% FBS and 1% penicillin and streptomycin. BRRCA1-deficient UWB1.289 ovarian cancer cells were cultured and maintained in 50% MEBM medium with growth factors and 50% RPMI medium supplemented with 3% FBS and 1% penicillin and streptomycin. 25 nm of mirVana miR-223 3p mimic from Ambion life technologies (Cat #4464067) was used to deplete PARP1 protein in these cell lines. Mir223-3p was encapsulated into the lipid transfection complex, RNAiMAX. 25 nm of miR-223-3p was incubated in 500 μL Opti-MEM plus 6 μl of RNAiMAX for 20 mins at room temperature and then added to the cells for a final volume of 1 ml. After 48 hours, the cells were trypsinized, counted and plated in 6 well plates at a density of 4000 cells per well, in triplicates. After 14 days of incubation, colonies were stained with 0.1% crystal violet in methanol and counted using Image J software. PARP1 repression by miR-223-3p was shown by western blot. PARP1 antibody was purchased from Cell Signaling (46D11).
as §1

[5] = tested on: MDA-MB-436 (breast cancer) cells, deficient in BRCA1; assay: Colony formation survival assay, MDA-MB-436; settings: MDA-MB-436, 25 nm miR-223-3p mimic, colonies counted after 14 days
Method: as §2, with “25 nm of miR-223-3p was incubated in 500 μL Opti-MEM plus 6 μl of RNAiMAX for 20 mins at room temperature and then added to the cells for a final volume of 1 ml.” left out, “PARP1 repression by miR-223-3p was shown by western blot. PARP1 antibody was purchased from Cell Signaling (46D11).” left out
(§3) Cell Culture, miRNA transfection and Survival Assay. […] After 48 hours, the cells were trypsinized, counted and plated in 6 well plates at a density of 4000 cells per well, in triplicates. After 14 days of incubation, colonies were stained with 0.1% crystal violet in methanol and counted using Image J software. […]

[6] = tested on: UWB1.289 (ovarian cancer) cells, deficient in BRCA1; assay: Colony formation survival assay, UWB1.289; settings: UWB1.289, 25 nm miR-223-3p mimic, colonies counted after 14 days
Method: as §2, with “25 nm of miR-223-3p was incubated in 500 μL Opti-MEM plus 6 μl of RNAiMAX for 20 mins at room temperature and then added to the cells for a final volume of 1 ml.” left out, “PARP1 repression by miR-223-3p was shown by western blot. PARP1 antibody was purchased from Cell Signaling (46D11).” left out
as §3

aNHEJ = assay: Alternative non-homologous end joining (aNHEJ) assay in EJ2-GFP U2OS cells; settings: prior exposure to miR-223-3p, I-SceI expression
Method: PARP1 is involved in the initial step in aNHEJ DNA double strand break repair. If PARP1 is repressed, then aNHEJ is decreased. The EJ2-GFP U2OS system was used to assess aNHEJ. This reporter system contains single, integrated copy of reporter with I-SceI target sites. These sites were cleaved upon transfection of an I-SceI expression vector. Cells were transfected with miR-223 3p mimic using RNAiMAX. 24 hours after transfection, the cells were transfected with I-SceI vector using polyethylenimine (PEI). After 72 hours, EJ2 cells were trypsinized, washed with PBS and GFP-positive cells were measured using FACSort (Becton-Dickinson, San Jose, Calif.). The GFP positive cells are proportional to the aNHEJ frequency.
Alternative Non-Homologous End Joining (aNHEJ) assay. PARP1 is the initial step in aNHEJ DNA double strand break repair. If PARP1 is repressed, then aNHEJ will be decreased. The EJ2-GFP U2OS system was used to assess aNHEJ. This reporter system contains single, integrated copy of reporter with I-SceI target sites. These sites were cleaved upon transfection of an I-SceI expression vector. Cells were transfected with miR223 3p mimic using RNAiMAX. […] After 72 hours, EJ2 cells were trypsinized, washed with PBS and GFP-positive cells were measured using FACSort (Becton-Dickinson, San Jose, Calif.). […]

Nc1ccn([C@@H]2O[C@H](CO)[C@@H](O)[C@@H]2O)c(=O)n1 [Ara-C, cytarabine]
levels of endogenous miR-223-3p (qRT-PCR) [1]: gradual decrease

O=C(c1cc(Cc2n[nH]c(=O)c3ccccc23)ccc1F)N1CCN(C(=O)C2CC2)CC1 [Olaparib, olaparib]
cells killed (colony formation) [2]: 80-90%

miR-223-3p: mirVana miR-223 3p mimic from Ambion life technologies (Cat #4464067); miR-223-3p is SEQ ID NO: 75; transfected with RNAiMAX (UGUCAGUUUGUCAAAUACCCCA; listed as RNA, chemistry not given here) [mirVana miR-223 3p mimic from Ambion life technologies (Cat #4464067); transfected with RNAiMAX]
Luciferase expression (PARP1 3′ UTR linked to Firefly Luciferase) (PARP1 3′ UTR mRNA): decreased
Luciferase expression (PARP1 3′ UTR linked to Firefly Luciferase) (PARP1 3′ UTR mRNA; listed as miR223-3p mimic): inhibition of PARP1
depletion of DNA repair components (Western) [3]: depletes other DNA repair components as well as PARP1
active replication forks (BrdU) [4]: decreases active replication forks
PARP1 knockdown (Western) (PARP1; BAP1 mutant mesothelioma): knockdown of PARP1
PARP1 knockdown (Western) (PARP1; EJ2-GFP cell reporter system): knockdown of PARP1
PARP1 protein expression (Western) (PARP1): represses PARP1 protein expression
PARP1 protein expression (Western) (PARP1; listed as mir223 mimic): knockdown of PARP1
PARP1 repression/knockdown (Western) (PARP1): Knockdown of PARP1
PARP1 repression/knockdown (Western) (PARP1; listed as miR223 mimic): repression of PARP1
number of colonies [5]: decreased number of colonies
number of colonies [6]: decreased number of colonies
fraction of EJ2 cells with productive aNHEJ (GFP positive cells) (aNHEJ): decreased
